Assays:
Hippocampal Cultures [1] = assay: Neuroprotection from heavy metal toxicity, CFDA assay; assay type: cell-based, rat; conditions: for EC50: Rattus norvegicus
From the text: All compounds were screened with dissociated hippocampal cultures derived from embryonic day 18 rats as the primary test system. With this preparation, primary neurons were used to test for prevention of heavy metal toxicity by the disclosed compounds. In brief, hippocampal tissue was obtained commercially through Brain Bits (Springfield, Ill.) and cultures prepared as previously described (Brewer, G. J. Serum-free B27/neurobasal medium supports differentiated growth of neurons from the striatum, substantia nigra, septum, cerebral cortex, cerebellum and dentate gyms, J. Neurosci. Res., 1995, 42, 674-683). The hippocampal neurons were platted at low density (10,000 cell/well) in a 96-well format and maintained in serum-free medium consisting of Neurobasal Medium supplemented with B27 and GlutaMAX (Gibco). Pre-coated poly-L-lysine coated plates are used because of the preferential adherence and survival of hippocampal neurons on this matrix support. Heavy metal toxicity is associated with the occurrence of seizures ([…] et al. Zinc and copper: pharmacological probes and endogenous modulators of neuronal excitability. Pharmacol. Ther. 2006, 111, 567-583). Therefore, the heavy metal toxicity studies serve as another example of the oxidative stress that the disclosed compounds have a protection action against. To establish the dose-dependency of test agents, day 18 hippocampal cultures were utilized to study the toxicity produced after treatment with the heavy metals and neuroprotection after treatment with test compounds. Serving as examples of heavy metal salts for these studies are the following: […] Prior to treatment, the B27/Neural Basal media of the cultures were replaced with B27 neural basal medium without antioxidants for 18 hours. […] Further, the removal of antioxidants in the medium was performed to obtain a significant and reproducible toxic signal for heavy metal treatment of the hippocampal neurons. Toxicity produced by heavy metals is measured by decreases in neuronal viability. Carboxyfluorescein (CFDA) was used a vital stain for all cell toxicity and neuroprotection studies. With the use of the CytoFluor fluorimeter, the CFDA assay was employed to assess the viability of neurons. CFDA is a dye that becomes fluorescent upon cell entry and cleavage by cytosolic esterases (Petroski and Geller. Selective labeling of embryonic neurons cultures on astrocyte monolayers with 5(6)-carboxyfluorescein diacetate [CFDA]. J. Neurosci. Methods 1994, 52, 23-32). Neuronal specificity is obtained relative to astrocytes because the cleaved dye is extruded extracellularlly by glia with time, while dye in neurons remains intracellular. Dose responses to the various heavy metal salts determined the minimal concentration that produced the maximum amount of toxicity. […] All test compounds are dissolved to 10 mM in Dulbecco's phosphate buffered saline (DPBS; Sigma: D-5780) prior to testing. To test for neuroprotection from a heavy metal toxicity, day 11 hippocampal cultures are given a complete change of medium containing 100 μl of Neurobasal medium with B27 that contain no antioxidants. Twenty-four hours after the change in medium, the heavy metal neuroprotection studies are started. […] At the conclusion of the 4 hour incubation period, the dye is removed from the cultures and washed once with 100 μl of DPBS. After removal of the first wash, a second wash of DPBS is added to the culture and then incubated for 30 min to allow the efflux of dye out of glia in the cultures. At the conclusion of the 30 min efflux period, the culture efflux medium is removed and 100 μl of 0.1% triton-X100 in water is added to the cultures before reading at Ex490/Em517 in a CytoFluor fluorimeter. Results are expressed in relative fluorescent units (RFU) and EC50's calculated from the dose response of the test compound.

Hippocampal Cultures [2] = assay: Neuroprotection from heavy metal toxicity, propidium iodide assay; assay type: cell-based; conditions: Rattus norvegicus, read-out: Neuroprotection EC50 PI
From the text: All compounds were screened with dissociated hippocampal cultures derived from embryonic day 18 rats as the primary test system. With this preparation, primary neurons were used to test for prevention of heavy metal toxicity by the disclosed compounds. In brief, hippocampal tissue was obtained commercially through Brain Bits (Springfield, Ill.) and cultures prepared as previously described (Brewer, G. J. Serum-free B27/neurobasal medium supports differentiated growth of neurons from the striatum, substantia nigra, septum, cerebral cortex, cerebellum and dentate gyms, J. Neurosci. Res., 1995, 42, 674-683). The hippocampal neurons were platted at low density (10,000 cell/well) in a 96-well format and maintained in serum-free medium consisting of Neurobasal Medium supplemented with B27 and GlutaMAX (Gibco). Pre-coated poly-L-lysine coated plates are used because of the preferential adherence and survival of hippocampal neurons on this matrix support. Heavy metal toxicity is associated with the occurrence of seizures ([…] et al. Zinc and copper: pharmacological probes and endogenous modulators of neuronal excitability. Pharmacol. Ther. 2006, 111, 567-583). Therefore, the heavy metal toxicity studies serve as another example of the oxidative stress that the disclosed compounds have a protection action against. To establish the dose-dependency of test agents, day 18 hippocampal cultures were utilized to study the toxicity produced after treatment with the heavy metals and neuroprotection after treatment with test compounds. Serving as examples of heavy metal salts for these studies are the following: […] Prior to treatment, the B27/Neural Basal media of the cultures were replaced with B27 neural basal medium without antioxidants for 18 hours. […] Further, the removal of antioxidants in the medium was performed to obtain a significant and reproducible toxic signal for heavy metal treatment of the hippocampal neurons. At the conclusion of the 4 hour test period, the cultures are also tested for the amount of cell death as measured by the propidium iodide method. […] After removal of the growth medium, 50 μl of the 50 μM PI solution is added to cultures and allowed to incubate in the dark at room temperature for 15 min. The cultures are then assessed for fluorescence intensity at Ex536/Em590 nm in a CytoFluor fluorimeter. Results are expressed in relative fluorescent units. […] The test compound is added to the hippocampal cultures at concentrations that range from […] to […]. The incubation period is for four hours followed by the measurement of fluorescence at Ex536/Em590 nm in a CytoFluor fluorimeter. Results are expressed in relative fluorescent units. Background fluorescence was subtracted from values obtained from wells without cells.

[3] = Cobalt Chloride hexahydrate 10 μM
[4] = Copper Acetate monohydrate 10 μM
[5] = Nickel Chloride hexahydrate 10 μM

NS(=O)(=O)NCC(F)(F)c1ccccc1F [Example 1, 2,2-Difluoro-2-(2-fluorophenyl)-ethyl-1-sulfamide] gave an EC50 (Hippocampal Cultures [1]; [3]) of 100000 pM, an EC50 (Hippocampal Cultures [1]; [4]) of 100 pM and an EC50 (Hippocampal Cultures [1]; Iron sulfate hexahydrate 10 μM) of 1000 pM. For the same molecule, the EC50 (Hippocampal Cultures [1]; [5]) was 10000 pM, the EC50 (Hippocampal Cultures [1]; Zinc Acetate dehydrate 1 μM) was 100 pM and the “Prevention of toxicity of 5 heavy metals” value (Hippocampal Cultures [1]; five heavy metal salts at the Table 3 concentrations, CFDA and PI assays) was “prevented the toxicity of 5 heavy metals”. It also gave an EC50 (Hippocampal Cultures [2]; [3]) of 100 pM, an EC50 (Hippocampal Cultures [2]; [4]) of 100 pM and an EC50 (Hippocampal Cultures [2]; Iron sulfate hexahydrate 10 μM) of 10 pM. For the same molecule, the EC50 (Hippocampal Cultures [2]; [5]) was 100 pM and the EC50 (Hippocampal Cultures [2]; Zinc Acetate dehydrate 1 μM) was 10 pM.

Source: US20130253022A1 (FOX CHASE CHEMICAL DIVERSITY CENTER, INC., priority 2010, published 2013)
